Among the data in ChEMBL document CHEMBL4483862, “Open-source discovery of chemical leads for next-generation chemoprotective antimalarials” (2018) are IC50 and IC90 values, retold here.

Where only a bound is given, the exact number is not on record here.

The test system of the assay is Plasmodium berghei. Kind of assay: Luciferase/luciferin-expressing antifolate-resistant parasites were used to infect a culture of HepG2 cells that were pre-incubated with compounds. Infected hepatocytes emit light due to the luciferase reaction. Assay results are presented as the percent inhibition of light emission compared to control. […]. The settings on record: sporozoite; for IC50: read-out: LUCIFERASE INFECTION ASSAY - IC50; for IC90: read-out: LUCIFERASE INFECTION ASSAY - IC90. Format: functional.

With `Cc1noc2nc(C3CC3)cc(C(=O)Oc3ccc(N4CCCC4=O)cc3)c12`, the 50% inhibitory concentration (IC50) was greater than 10 µM and the IC90 is greater than 10 µM.

On to `CC(Sc1nnc2ccc(C(F)(F)F)cn12)C(=O)NCC1CCCO1` (stereo not given), for which the half-maximal inhibitory concentration (IC50) was greater than 10 µM and the IC90 was greater than 10 µM.

With `N#Cc1cccc(-c2nnco2)c1`, the 50% inhibitory concentration (IC50) was greater than 10 µM and the IC90 was greater than 10 µM.

For the compound `Nc1cc(-c2ccc(Br)s2)n[nH]1`, the half-inhibitory concentration (IC50) is greater than 10 µM and the concentration for an effect of 90% (IC90) was greater than 10 µM.

On to `O=C(CNC(=O)c1ccc(N2CCCC2=O)cc1)NCCCn1cccn1`, for which the IC50 was greater than 10 µM and the concentration for an effect of 90% (IC90) was greater than 10 µM.

In the case of `Cc1ccc(C(=O)Nc2ccnn2CC(C)C)cn1`, the 50% inhibitory concentration (IC50) was greater than 10 µM and the concentration for an effect of 90% (IC90) is greater than 10 µM.

For the compound `Nc1nc(SCc2cc(=O)n3c(n2)sc2ccccc23)nc2sccc12`, the IC50 is greater than 10 µM and the concentration for an effect of 90% (IC90) is greater than 10 µM.

`Cc1ccc2nc(NC(=O)c3ccc(OCc4nccn4C)cc3)sc2c1`: the concentration for half-maximal inhibition (IC50) was greater than 10 µM and the concentration for an effect of 90% (IC90) was greater than 10 µM.

For `Cc1cc(C(=O)Nc2ccncc2Cl)c(C)s1`, the 50% inhibitory concentration (IC50) is greater than 10 µM and the 90% effect concentration (IC90) is greater than 10 µM.

On to `CC(OC(=O)c1cccc(Cl)c1N)C(=O)N(C(C)C)C(C)C` (stereo not given), for which the 50% inhibitory concentration (IC50) was greater than 10 µM and the IC90 is greater than 10 µM.

Take `CN(C)C(CNc1cc(C(=O)NC2CC2)c2ccccc2n1)Cc1ccccc1` (stereo not given): the 50% inhibitory concentration (IC50) was greater than 10 µM and the IC90 is greater than 10 µM.

Take `N#Cc1cnc2c(Cl)cc(F)cc2c1Cl`: the half-maximal inhibitory concentration (IC50) is greater than 10 µM and the IC90 is greater than 10 µM.

In the case of `COc1cccc(CC(=O)Nc2ccc(N3CCNC(=O)C3)c(Cl)c2)c1`, the IC50 is greater than 10 µM and the 90% effect concentration (IC90) is greater than 10 µM.

In the case of `CN(CCO)C(=O)NCCC(c1ccccc1)c1ccccc1`, the half-inhibitory concentration (IC50) was greater than 10 µM and the IC90 is greater than 10 µM.

Regarding `CN(Cc1ccccc1)C(=O)Nc1cccc2ncccc12`, the IC50 is greater than 10 µM and the IC90 is greater than 10 µM.

With `O=C(Cc1csc(-c2ncccn2)n1)Oc1ccc(N2CCCC2=O)cc1`, the 50% inhibitory concentration (IC50) was greater than 10 µM and the 90% effect concentration (IC90) is greater than 10 µM.

`Nc1nc(CSc2nccc(C(F)(F)F)n2)nc(Nc2ccc(F)cc2)n1`: the 50% inhibitory concentration (IC50) is greater than 10 µM and the IC90 is greater than 10 µM.

For the compound `COC(=O)C1CC2CCCCC2N1C(=O)c1nn(C)c(=O)c2ccccc12` (stereo not given), the half-maximal inhibitory concentration (IC50) is greater than 10 µM and the 90% effect concentration (IC90) is greater than 10 µM.

For the compound `N#Cc1ccc(NC(=O)C2CC2(Cl)Cl)cc1` (stereo not given), the 50% inhibitory concentration (IC50) was greater than 10 µM and the 90% effect concentration (IC90) is greater than 10 µM.

Take `CN(Cc1nc2ccccc2[nH]1)c1nccc(C(F)(F)F)n1`: the IC50 was greater than 10 µM and the IC90 is greater than 10 µM.

As for `O=C(C1CCCO1)N1CCn2c1nc1ccccc12` (stereo not given), the 50% inhibitory concentration (IC50) was greater than 10 µM and the IC90 was greater than 10 µM.

On to `C=CCNC(=O)NCC(=O)Nc1ccc(OC)c(Cl)c1`, for which the IC50 was greater than 10 µM and the IC90 is greater than 10 µM.

For the compound `C=CCn1cnnc1SCC(=O)c1cccn1C`, the IC50 is greater than 10 µM and the IC90 was greater than 10 µM.

Consider `Cc1nc(Sc2ncnc3c(Br)cccc23)sc1CC(N)=O`, for which the concentration for half-maximal inhibition (IC50) was greater than 10 µM and the IC90 is greater than 10 µM.

As for `Cn1c(Cl)cnc1CN1CCN(CC(=O)Nc2ccccc2Cl)CC1`, the half-inhibitory concentration (IC50) was greater than 10 µM and the IC90 was greater than 10 µM.

For `Cc1cc(NC(=O)C2CC2)sc1C(=O)N1CCNC(=O)C1`, the IC50 is greater than 10 µM and the 90% effect concentration (IC90) was greater than 10 µM.

As for `Cc1ccc(NC(=O)c2ccc(S(=O)(=O)N3CCOCC3)o2)cc1Cl`, the IC50 is greater than 10 µM and the IC90 is greater than 10 µM.

Regarding `c1ccc(-c2nnc(CSC3=NCCS3)o2)cc1`, the IC50 was greater than 10 µM and the concentration for an effect of 90% (IC90) was greater than 10 µM.

With `Cn1cc(S(=O)(=O)Nc2cccc(CN3C(=O)CNC3=O)c2)cc1C(N)=O`, the IC50 was greater than 10 µM and the 90% effect concentration (IC90) was greater than 10 µM.

In the case of `Cc1nnc(N(C)CCCc2n[nH]c(N)c2C#N)c2ccccc12`, the IC50 is greater than 10 µM and the IC90 is greater than 10 µM.

As to `Cc1cc(C(=O)Nc2nc3ccccc3s2)c(C)n1C(C)C`, the concentration for half-maximal inhibition (IC50) turned out to be 0.121 µM and the 90% effect concentration (IC90) came out at 0.946 µM.

As to `CCNC(=O)CNC(=O)c1ccc(C(C)(C)C)cc1`, the IC50 was greater than 10 µM and the 90% effect concentration (IC90) is greater than 10 µM.

In the case of `O=S(=O)(C1=Cc2ccccc2CC1)N1CCOC2CCCCC21` (stereo not given), the IC50 was greater than 10 µM and the IC90 is greater than 10 µM.

`Cc1cc(N2CCOCC2)ccc1NC(=O)CC1C=CCC1` (stereo not given): the IC50 was greater than 10 µM and the IC90 was greater than 10 µM.

With `CC(N)C(=O)NCC(F)(F)F` (stereo not given), the 50% inhibitory concentration (IC50) is greater than 10 µM and the 90% effect concentration (IC90) was greater than 10 µM.

`N#Cc1ccccc1S(=O)(=O)Oc1ccccc1C(F)(F)F`: the IC50 is greater than 10 µM and the IC90 is greater than 10 µM.

Turning to `O=C(NCCCC(=O)N1CCC(c2ccc(O)cc2)CC1)c1ccsc1`, the 50% inhibitory concentration (IC50) was greater than 10 µM and the 90% effect concentration (IC90) is greater than 10 µM.

Turning to `O=C(O)Cc1csc(-c2cc(Br)cs2)n1`, the half-inhibitory concentration (IC50) is greater than 10 µM and the IC90 was greater than 10 µM.

As for `Cc1cc(C)n2nc(C(=O)OCC(=O)N(C)Cc3ccsc3)nc2n1`, the 50% inhibitory concentration (IC50) is greater than 10 µM and the 90% effect concentration (IC90) is greater than 10 µM.

For `Cc1nnc(-c2cccc(NC(=O)c3ccc4c(c3)CCO4)c2)[nH]1`, the IC50 was greater than 10 µM and the IC90 is greater than 10 µM.

`CCOC(=O)C1=C(Cn2ccnc2)NC(=O)NC1CC` (stereo not given): the IC50 was greater than 10 µM and the IC90 is greater than 10 µM.

With `Clc1ccc2c(NCCCNc3ccccn3)ncnc2c1`, the IC50 is greater than 10 µM and the 90% effect concentration (IC90) was greater than 10 µM.

As to `Cn1cnnc1-c1cccc(NC(=O)c2ccc(=O)n(Cc3ccccc3)n2)c1`, the IC50 is greater than 10 µM and the IC90 is greater than 10 µM.

Regarding `COC(=O)c1cccc2c1CCCN2C(=O)CCN1C(=O)C2CCCCC2C1=O` (stereo not given), the half-maximal inhibitory concentration (IC50) is greater than 10 µM and the concentration for an effect of 90% (IC90) is greater than 10 µM.

On to `CCN(CC)S(=O)(=O)c1ccc(=O)n(Cc2nc(N)nc(N(C)C)n2)c1`, for which the 50% inhibitory concentration (IC50) was greater than 10 µM and the IC90 was greater than 10 µM.

For the compound `NC(=O)N1CCCC(C(=O)N2CCCC(c3nc4ccccc4s3)C2)C1` (stereo not given), the 50% inhibitory concentration (IC50) was greater than 10 µM and the IC90 is greater than 10 µM.

As for `CC(NC(=O)Nc1ccc(C#N)c(Cl)c1)c1cccs1` (stereo not given), the IC50 is greater than 10 µM and the IC90 is greater than 10 µM.

Take `CCc1cc(Cl)n2nc(C(=O)OC)nc2n1`: the concentration for half-maximal inhibition (IC50) is greater than 10 µM and the IC90 was greater than 10 µM.

Regarding `O=C1/C(=C/c2ccc(-n3cncn3)c(F)c2)CSc2ccccc21`, the IC50 is greater than 10 µM and the 90% effect concentration (IC90) is greater than 10 µM.

Turning to `O=C1COc2cc(C(=O)Oc3ccc4ccccc4c3Br)ccc2N1`, the 50% inhibitory concentration (IC50) was greater than 10 µM and the IC90 is greater than 10 µM.

As to `O=C(NCc1ccccn1)c1ccc2nc3n(c2c1)CCC3`, the half-maximal inhibitory concentration (IC50) is greater than 10 µM and the concentration for an effect of 90% (IC90) was greater than 10 µM.

Turning to `Cc1cnc2c(S(=O)(=O)NCc3csc(-c4ccccc4)n3)cccc2c1`, the 50% inhibitory concentration (IC50) is greater than 10 µM and the 90% effect concentration (IC90) was greater than 10 µM.

With `CCn1c(=O)n(Cc2cc(Cl)c3c(c2)OCO3)c2ccccc21`, the IC50 is greater than 10 µM and the IC90 is greater than 10 µM.

In the case of `CCc1nnc(NC(=O)c2csc(Cc3ccccc3)n2)s1`, the half-inhibitory concentration (IC50) is 8.84 µM and the IC90 is greater than 10 µM.

Take `CCNC(=O)c1cccc(NC(=O)CCC(=O)c2cc(C)ccc2C)c1`: the IC50 is greater than 10 µM and the IC90 was greater than 10 µM.
